# Results: BindingDB's records for patent US20230357253 (The Scripps Research Institute, 2023)
# Molecular target: Stimulator of interferon genes protein (Homo sapiens, UniProt Q86WV6)
# Experiment: WT STING Binding Assay
# Method: Upon proximity of the two dyes, the excitation of the donor by the flash lamp on the PHERAstar FSX plate reader triggers a Fluorescence Resonance Energy Transfer (FRET) towards the acceptor, which in turn fluoresces at 665 nm. To assess the ability of the synthetic small molecule STING ligands to bind to human STING, a competitive assay format was applied. A 10-point titration of each of the synthetic ligands in 5 uL were transferred into a 384 well plate, followed by 20 uL of assay buffer containing the 6×His-tagged human STING protein and labeled 2′3′cGAMP ligand and incubated for three hours at room temperature. The raw values obtained from the PHERAstar were used to calculate the reported IC50 values (the signal is inversely proportional to the binding of the synthetic ligand) through curve fitting in Genedata. The percent inhibition was calculated based upon the maximal amount of binding by synthetic compound versus the maximum binding of unlabeled 2′3′ cGAMP which was used as a control in each assay.
# Stimulator of interferon genes protein, sequence (Q86WV6 whole entry): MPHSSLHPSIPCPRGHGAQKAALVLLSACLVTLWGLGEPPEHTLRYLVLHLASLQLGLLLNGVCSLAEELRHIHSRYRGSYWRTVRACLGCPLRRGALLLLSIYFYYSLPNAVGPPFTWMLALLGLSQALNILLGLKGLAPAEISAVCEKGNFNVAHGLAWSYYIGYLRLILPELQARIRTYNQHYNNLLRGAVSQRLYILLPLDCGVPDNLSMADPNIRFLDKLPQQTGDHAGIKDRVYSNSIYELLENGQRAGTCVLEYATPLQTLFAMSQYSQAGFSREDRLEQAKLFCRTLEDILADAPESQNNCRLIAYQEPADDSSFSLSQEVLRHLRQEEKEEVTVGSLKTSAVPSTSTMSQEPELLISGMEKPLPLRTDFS
row,SMILES,IC50
1,"O=C(Nc1cc(CCCc2cc(NC(=O)c3ccc(-n4ccnc4)nn3)c(C(=O)O)s2)c(F)cc1C(=O)O)c1ccc(-n2ccnc2)nn1 [US20230357253, Compound 164]",< 10 nM
2,"O=C(Nc1cc(OCCc2cc(C(=O)O)c(NC(=O)c3ccc(-n4ccnc4)nn3)cc2Cl)c(F)cc1C(=O)O)c1ccc(-n2ccnc2)nn1 [US20230357253, Compound 166]",< 10 nM
3,"O=C(Nc1cc(OCCCOc2cc(NC(=O)c3ccc(-n4ccnc4)nn3)c(C(=O)O)cc2F)c(F)cc1C(=O)O)c1ccc(-n2ccnc2)nn1 [US20230357253, Compound 168]",< 10 nM
4,"O=C(Nc1cc(OCCc2cc(C(=O)O)c(NC(=O)c3ccc4nnnn4n3)cc2F)c(F)cc1C(=O)O)c1ccc(-n2ccnc2)nn1 [US20230357253, Compound 169]",< 10 nM
5,"O=C(Nc1cc(CCCc2cc(NC(=O)c3ccc(-n4ccnc4)nn3)c(C(=O)O)cc2Cl)c(F)cc1C(=O)O)c1ccc(-n2ccnc2)nn1 [US20230357253, Compound 174]",< 10 nM
6,"O=C(Nc1cc(OCCc2c(F)cc(NC(=O)c3ccc(-n4ccnc4)nn3)c(C(=O)O)c2F)c(F)cc1C(=O)O)c1ccc(-n2ccnc2)nn1 [US20230357253, Compound 177]",< 10 nM
7,"O=C(Nc1cc(CCc2cc(C(=O)O)c(NC(=O)c3ccc(-n4ccnc4)nn3)cc2F)c(F)cc1C(=O)O)c1ccc(-n2ccnc2)nn1 [US20230357253, Compound 180]",> 1000 nM
8,"N#Cc1cc(C(=O)O)c(NC(=O)c2ccc(-n3ccnc3)nn2)cc1CCCc1cc(NC(=O)c2ccc(-n3ccnc3)nn2)c(C(=O)O)cc1F [US20230357253, Compound 182]",< 10 nM
9,"O=C(Nc1cc(OCc2cc(C(=O)O)c(NC(=O)c3ccc(-n4ccnc4)nn3)cc2F)c(F)cc1C(=O)O)c1ccc(-n2ccnc2)nn1 [US20230357253, Compound 190]",> 1000 nM
10,"O=C(Nc1cc(OCCOc2cc(C(=O)O)c(NC(=O)c3ccc(-n4ccnc4)nn3)cc2F)c(F)cc1C(=O)O)c1ccc(-n2ccnc2)nn1 [US20230357253, Compound 191]",< 10 nM
11,"CC(Cc1cc(NC(=O)c2ccc(-n3ccnc3)nn2)c(C(=O)O)cc1F)Cc1cc(NC(=O)c2ccc(-n3ccnc3)nn2)c(C(=O)O)cc1F [US20230357253, Compound 194]",< 10 nM
12,"O=C(Nc1cc(CCSc2cc(NC(=O)c3ccc(-n4ccnc4)nn3)c(C(=O)O)cc2F)c(F)cc1C(=O)O)c1ccc(-n2ccnc2)nn1 [US20230357253, Compound 195]",< 10 nM

# Now from value to molecule:
row,IC50,SMILES
1,< 10 nM,"C=C(Cc1cc(NC(=O)c2ccc(-n3ccnc3)nn2)c(C(=O)O)cc1F)Cc1cc(NC(=O)c2ccc(-n3ccnc3)nn2)c(C(=O)O)cc1F [US20230357253, Compound 199]"
2,> 1000 nM,"O=C(Nc1cc(CC[S+]([O-])c2cc(NC(=O)c3ccc(-n4ccnc4)nn3)c(C(=O)O)cc2F)c(F)cc1C(=O)O)c1ccc(-n2ccnc2)nn1 (stereo not given) [US20230357253, Compound 200]"
3,< 10 nM,"O=C(Nc1cc(OCCc2cc(C(=O)O)c(NC(=O)c3ccc(-c4cn[nH]c4)nn3)cc2F)c(F)cc1C(=O)O)c1ccc(-c2cn[nH]c2)nn1 [US20230357253, Compound 204]"
4,< 10 nM,"O=C(Nc1cc(CCOc2cc(NC(=O)c3ccc(-n4ccnc4)nn3)c(C(=O)O)cc2F)c(F)cc1C(=O)O)c1ccc(-c2cn[nH]c2)nn1 [US20230357253, Compound 205]"
5,> 1000 nM,"Cn1nccc1-c1ccc(C(=O)Nc2cc(OCCCOc3cc(NC(=O)c4ccc(-c5ccnn5C)nn4)c(C(=O)O)cc3F)c(F)cc2C(=O)O)nn1 [US20230357253, Compound 206]"
6,> 1000 nM,"Cn1nccc1-c1ccc(C(=O)Nc2cc(CCCc3cc(NC(=O)c4ccc(-n5ccnc5)nn4)c(C(=O)O)cc3F)c(F)cc2C(=O)O)nn1 [US20230357253, Compound 207]"
7,> 1000 nM,"O=C(Nc1cc(CCCc2cc(NC(=O)c3ccc(-n4ccnc4)nn3)c(C(=O)O)cc2F)c(F)cc1C(=O)O)c1ccc(N2CCOCC2)nn1 [US20230357253, Compound 212]"
8,> 1000 nM,"O=C(Nc1cc(CCCc2cc(NC(=O)c3ccc(-n4ccnc4)nn3)c(C(=O)O)cc2F)c(F)cc1C(=O)O)c1ccc(N2CCNCC2)nn1 [US20230357253, Compound 214]"
